Patent US12103919B2, “3-(5-oxy)-1-oxoisoindolin-2-yl)piperidine-2,6-dione derivatives and uses thereof” (NOVARTIS AG, priority 2021, dated 2024)

Experiments:
SALL4 = target: T1, SALL4 (Homo sapiens, UniProt Q96SW2+Q9UJQ4); test: Quantification of SALL4 protein levels in HiBiT tag fusion protein assay; format: cell-based
T1 construct: expressed in transfected cells; host or cells: GripTite 293 MSR cells (293GT), ThermoFisher Scientific, stably transfected by electroporation, blasticidin-selected clones
T1 sequence (Q9UJQ4 whole entry, the tested form may be a part): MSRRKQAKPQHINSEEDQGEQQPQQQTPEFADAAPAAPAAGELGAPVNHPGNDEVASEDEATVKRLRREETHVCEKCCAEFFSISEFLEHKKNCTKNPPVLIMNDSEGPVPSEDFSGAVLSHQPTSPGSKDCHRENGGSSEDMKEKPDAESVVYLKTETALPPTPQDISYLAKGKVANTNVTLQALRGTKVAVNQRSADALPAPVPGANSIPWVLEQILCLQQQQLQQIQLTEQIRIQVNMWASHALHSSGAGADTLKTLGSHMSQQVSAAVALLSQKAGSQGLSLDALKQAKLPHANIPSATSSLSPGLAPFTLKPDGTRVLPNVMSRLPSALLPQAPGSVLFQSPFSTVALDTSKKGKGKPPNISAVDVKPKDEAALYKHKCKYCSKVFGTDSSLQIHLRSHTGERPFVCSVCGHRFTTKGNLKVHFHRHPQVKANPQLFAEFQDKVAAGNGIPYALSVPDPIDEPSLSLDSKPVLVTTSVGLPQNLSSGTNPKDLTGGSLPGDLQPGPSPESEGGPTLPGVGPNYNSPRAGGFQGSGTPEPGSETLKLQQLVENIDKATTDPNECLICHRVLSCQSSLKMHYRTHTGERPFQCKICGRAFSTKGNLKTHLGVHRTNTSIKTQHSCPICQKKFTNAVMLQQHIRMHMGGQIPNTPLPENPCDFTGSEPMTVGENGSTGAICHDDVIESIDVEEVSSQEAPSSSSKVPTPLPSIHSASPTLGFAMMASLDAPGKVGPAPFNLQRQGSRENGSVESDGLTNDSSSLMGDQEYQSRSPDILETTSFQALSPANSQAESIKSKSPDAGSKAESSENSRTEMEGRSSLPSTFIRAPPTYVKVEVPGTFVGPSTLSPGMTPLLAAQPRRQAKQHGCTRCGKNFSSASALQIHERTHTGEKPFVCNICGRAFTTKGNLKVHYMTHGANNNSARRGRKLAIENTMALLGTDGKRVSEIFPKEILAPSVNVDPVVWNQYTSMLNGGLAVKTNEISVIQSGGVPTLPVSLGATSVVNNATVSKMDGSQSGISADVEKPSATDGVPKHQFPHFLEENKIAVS
T1 sequence (Q96SW2 whole entry, the tested form may be a part): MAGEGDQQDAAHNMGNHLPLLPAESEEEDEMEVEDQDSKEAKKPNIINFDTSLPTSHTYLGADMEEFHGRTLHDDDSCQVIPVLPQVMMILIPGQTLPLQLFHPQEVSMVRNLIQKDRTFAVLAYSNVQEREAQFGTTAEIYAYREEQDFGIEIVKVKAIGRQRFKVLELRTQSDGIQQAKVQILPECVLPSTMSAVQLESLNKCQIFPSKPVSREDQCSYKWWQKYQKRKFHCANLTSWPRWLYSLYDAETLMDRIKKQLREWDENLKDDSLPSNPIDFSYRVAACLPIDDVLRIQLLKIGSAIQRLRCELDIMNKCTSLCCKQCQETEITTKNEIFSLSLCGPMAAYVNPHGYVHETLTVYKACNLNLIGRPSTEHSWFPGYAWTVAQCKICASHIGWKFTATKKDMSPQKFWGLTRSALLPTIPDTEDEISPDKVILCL
T1 sequence (Q16531 whole entry partner, the tested form may be a part): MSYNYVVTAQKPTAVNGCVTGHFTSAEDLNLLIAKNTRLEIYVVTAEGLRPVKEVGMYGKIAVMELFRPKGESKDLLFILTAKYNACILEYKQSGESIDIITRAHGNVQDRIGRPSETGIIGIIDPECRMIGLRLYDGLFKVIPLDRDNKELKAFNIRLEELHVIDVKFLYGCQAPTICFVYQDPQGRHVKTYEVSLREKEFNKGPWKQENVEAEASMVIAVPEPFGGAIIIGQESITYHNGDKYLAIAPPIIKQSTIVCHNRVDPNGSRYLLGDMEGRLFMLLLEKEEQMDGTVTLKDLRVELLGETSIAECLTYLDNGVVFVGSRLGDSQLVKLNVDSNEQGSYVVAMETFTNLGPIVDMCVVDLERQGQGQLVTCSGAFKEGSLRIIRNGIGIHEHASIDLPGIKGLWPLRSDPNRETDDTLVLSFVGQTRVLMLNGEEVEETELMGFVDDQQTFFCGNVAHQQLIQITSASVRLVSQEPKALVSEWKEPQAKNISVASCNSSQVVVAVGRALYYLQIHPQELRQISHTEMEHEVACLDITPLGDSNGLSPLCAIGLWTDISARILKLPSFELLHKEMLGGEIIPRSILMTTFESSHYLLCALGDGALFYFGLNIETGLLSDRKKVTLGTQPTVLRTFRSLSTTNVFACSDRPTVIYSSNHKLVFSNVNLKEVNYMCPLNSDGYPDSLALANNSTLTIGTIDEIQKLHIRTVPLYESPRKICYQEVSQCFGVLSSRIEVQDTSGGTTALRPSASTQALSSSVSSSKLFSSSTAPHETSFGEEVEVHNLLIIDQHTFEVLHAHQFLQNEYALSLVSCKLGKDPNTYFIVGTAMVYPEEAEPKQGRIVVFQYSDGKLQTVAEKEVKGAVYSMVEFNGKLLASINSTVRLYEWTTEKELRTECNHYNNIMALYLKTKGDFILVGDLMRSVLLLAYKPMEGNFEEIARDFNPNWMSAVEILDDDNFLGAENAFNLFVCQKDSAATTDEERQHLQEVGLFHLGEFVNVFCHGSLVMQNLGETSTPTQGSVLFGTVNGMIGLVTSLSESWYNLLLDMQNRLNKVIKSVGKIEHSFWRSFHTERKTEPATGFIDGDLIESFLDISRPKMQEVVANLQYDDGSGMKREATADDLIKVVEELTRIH
Experimental: The HiBiT system from Promega was used to develop high-throughput and quantitative assays to measure changes in SALL4 protein levels in response to compounds. The HiBiT tag was derived from a split Nanoluciferase and has the following protein sequence: […] (SEQ ID No: 1). The complementary fragment of Nanoluciferase (known as LgBiT, from Promega), was added to the HiBiT tag to form an active Nanoluciferase enzyme whose activity can be precisely measured. In this way, the levels of a fusion protein with the HiBiT tag can be quantified in cell lysates.
DNA constructs, based on the Invitrogen pLenti6.2/V5 DEST backbone, were constructed with the HiBiT tag upstream of SALL4 and expressed the fusion protein from a CMV promotor.
To ensure moderate and consistent expression of the HiBiT-SALL4 fusion protein across all cells in the population, stable cell lines were derived from clones. GripTite 293 MSR cells (293GT) from ThermoFisher Scientific (Catalog number: CRL-R79507), were stably transfected with prepared constructs via electroporation. Following recovery, cells were selected by 10 ug/mL blasticidin in culture media.
The levels of HiBiT-SALL4 tagged fusion proteins in compound-treated cell lines were measured as follows:
On day 1, cells were diluted to 1.0×10^6 cells/ml in normal growth medium. 20 μL of cell suspension were plated in each well of a solid white 384-well plate. Plates were incubated overnight in a 37° C. and 5% CO2 humidified tissue culture incubator.
On day 2, serial dilutions of compounds were made in 384-well plates. Compound plates were set up with DMSO in columns 1, 2, 23, 24, and 10-point compound dilution series in column 3-12 and column 13-22. 10 mM stock solution of compound were placed into column 3 or 13 and a 1:5 serial dilution was carried out until there was a 10-point dilution series per compound. 100 nL of diluted compounds were transferred into the plated cells by Echo® (Labcyte) acoustic transfer. The highest concentration of compound was 50 μM. Plates were incubated overnight (18 hours) in a 37° C. and 5% CO2 humidified tissue culture incubator.
On day 3, plates were removed from the incubator and allowed to equilibrate at room temperature for 60 minutes. HiBiT substrate (Nano-Glo® HiBit Lytic Detection System, Promega Catalogue number: N3050) was added as described by the manufacturers protocols. Plates were incubated at room temperature for 30 minutes and luminescence was read using an EnVision® reader (PerkinElmer®). Data was analyzed and visualized using the Spotfire® software package.
SALL4 Amax reflects the DMSO-normalized, curve-fitted percentage of SALL4-HiBiT remaining at 50 uM. It was calculated by normalizing DMSO controls to 100%, parametric curve fitting of the dose response data (10-point, 5-fold), followed by calculation of response at 50 uM using the fitted equation.
This assay produced a range of SALL4 AC50 and Amax values over several repeat runs due to normal variations in the assay. For a comparison to the compounds described in PCT/IB2020/062070, the arithmatic mean values are reported over the number of repeats specified. […] The compounds of the present disclosure are therefore expected to have improved toxicological properties (Matyskiela, M. E., Couto, S., Zheng, X. et al. SALL4 mediates teratogenicity as a thalidomide-dependent cereblon substrate. Nat Chem Biol 14, 981-987 (2018); Donovan, K. A. et al. Thalidomide promotes degradation of SALL4, a transcription factor Implicated in Duane Radial Ray syndrome. eLife 2018; 7:e38430).

Fetal Hemoglobin (HbF) = test: Small molecule HbF induction assay in erythroid-differentiated mPB CD34+ cells (flow cytometry); format: cell-based, human; settings: highest percentage of cells staining positive for HbF (% HbF+ cells) in fitted dose-response curve; DMSO baseline approximately 30-40%
Experimental: Cryopreserved primary human CD34^+ hematopoietic stem and progenitor cells were obtained from AllCeIIs, LLC. The CD34^+ cells were isolated from the peripheral blood of healthy donors after mobilization by administration of granulocyte colony-stimulating factor. Cells were differentiated ex vivo toward the erythroid lineage using a 2-phase culture method. In the first phase, cells were cultured in Stemspan™ Serum-Free Expansion Media (SFEM) ([…] Technologies Inc.) supplemented with rhSCF (50 ng/mL, Peprotech®, Inc.), rhlL-6 (50 ng/mL, Peprotech®, Inc.), rhlL-3 (50 ng/mL, Peprotech®, Inc.), and rhFlt3L (50 ng/mL, Peprotech®, Inc.), and 1× antibiotic-antimycotic (Life Technologies, Thermo Fisher Scientific) for 6 days at 37° C. with 5% CO2. During the second phase, cells were cultured in erythroid differentiation media at 5,000 cells/mL in the presence of compound for 7 days at 37° C. with 5% […]. Erythroid Differentiation Media is comprised of IMDM (Life Technologies) supplemented with insulin (10 μg/mL. Sigma Aldrich), heparin (2 U/mL Sigma Aldrich), holo-transferrin (330 μg/mL, Sigma Aldrich), human serum AB (5%, Sigma Aldrich), hydrocortisone (1 μM, […] Technologies), rhSCF (100 ng/mL, Peprotech®, Inc.), rhIL-3 (5 ng/mL. Peprotech®, Inc.), rhEPO (3 U/mL, Peprotech®, Inc.), and 1× antibiotic-antimycotic. All compounds were dissolved and diluted into dimethylsulfoxide (DMSO) and were added to culture media for a final concentration of 0.3% DMSO for testing in a 10-point, 1:3 dilution series starting at 10 uM.
For viability analysis, samples were washed and resuspended in phosphate-buffered saline (PBS) and stained with LlVE/DEAD™ Fixable Violet Dead Cell Stain Kit (Life Technologies, L34963) for 20 minutes. Cells were then washed again with PBS and resuspended in PBS supplemented with 2% fetal bovine serum (FBS), and 2 mM EDTA to prepare for cell surface marker analysis. […]
mPB CD34+ cells were expanded for 6 days, then erythroid differentiated in the presence of compound for 7 days. Cells were fixed, stained and analyzed by flow cytometry. […]

CCN1CCC[C@@H](Oc2ccc3c(c2)CN(C2CCC(=O)NC2=O)C3=O)C1 (mixture of isomers) [Example 1, 3-(5-(((R)-1-ethylpiperidin-3-yl)oxy)-1-oxoisoindolin-2-yl)piperidine-2,6-dione]
SALL4 Amax (SALL4; DMSO-normalized, curve-fitted percentage of SALL4-HiBiT remaining at 50 uM, mean over repeats): 72.21%
DC50 (SALL4; arithmatic mean over number of repeats, 18 hours, top 50 μM, read-out: SALL4 AC50): 49 nM
HbF Amax (Fetal Hemoglobin (HbF)): 66.5%
